From patent publication US20200255492A1, “LEPTIN PEPTIDES AND THEIR USE FOR TREATING NEUROLOGICAL DISORDERS” (UNIVERSITY OF DUNDEE, priority 2017, published 2020)

Assays:
[1] = tested on: differentiated SH-SY5Y human neuronal cells; experiment: MTT assay of mitochondrial activity (cell viability); type: cell-based; conditions: 10 nM; n=11
Protocol: The human neuroblastoma cell line, SH-SY5Y (ECACC, UK) was maintained in Dulbecco's Modified Eagle Medium supplemented with glucose ([…]) and 10% (v/v) cosmic calf serum (Fisher Scientific, UK) at 37° C. in a humidified atmosphere of 5% CO2, 95% air and allowed to reach 70-80% confluence before seeding. Cells (passage 10-18) were plated at 10 000 cells per well in 96 well tissue culture plates (Nunc, VWR, UK) and at a density of 2×10^5 cells in 35 mm dishes for protein extraction. To induce differentiation, cells were cultured in DMEM supplemented with glucose ([…]), 1% (v/v) cosmic calf serum and 10 μM retinoic acid for 5 days. Thereafter they were incubated in DMEM supplemented with glucose ([…]), serum replacement 2 (2%; Sigma, UK) and 18 μM 5-fluorodeoxyuridine to inhibit proliferation of undifferentiated cells. The 50% of the medium was changed every 2-3 days and pharmacological treatment was carried out 7 days after switching to this medium. Reagents used were (from Sigma UK unless stated) 0.1-10 nM human leptin and leptin (116-130); 0.1-10 nM leptin (22-56; Bachem; Switzerland); 10 nM leptin (116-121) leptin (117-122), leptin (124-129) or leptin (125-130; all Severn Biotech, UK); 5 μM copper chloride; […], 5 μM WP1066 or 50 nM wortmannin. All treatments were added to the culture at the same time and survival assays were carried out after 96 h treatment. Protein samples for signaling ELISA were extracted 3 h after exposure to the relevant reagents and for biomarker expression after 72 hours.
The concentration of lactate dehydrogenase (LDH) in the culture medium or the mitochondrial activity within cells was used to monitor the level of cell death, as previously (Oldreive and Doherty 2010). In certain experiments, a Crystal violet assay was used to assess total cell number. Cells were fixed in neutral buffered formalin and washed 3 times in PBS prior to staining with 0.01% crystal violet acetate for 5 min. Plates were washed 5-10 times in dH2O and cells solubilised in 100 μl dimethyl sulfoxide (DMSO) before reading the absorbance on a Biohit BP100 plate reader. For all assays, data is expressed as percentage relative to control, untreated wells to normalize for differences in plating density between individual experiments.
To confirm the findings of the LDH assay, cells were treated with Aβ1-42 alone or with a 10 nM of leptin, leptin (116-130) or the listed hexamers, and mitochondrial activity, as a measure of cell viability, determined by MTT assay. A significant increase in mitochondrial activity was detected following treatment with either leptin or leptin (116-130; both 10 nM). […] Thus for Aβ1-42-treated cells, 10 nM leptin and 10 nM leptin (116-130) increased mitochondrial activity by 32.6±5.2% and 40.9+5.8% respectively compared with Aβ1-42 alone (n=11; P<0.001; FIG. 11B); an effect that was mirrored by 10 nM leptin (116-121) and leptin (117-122); 43.61±3.9% and 40.5±3.7*% (n=11; P<0.001; FIG. 11B), but not by 10 nM leptin (124-129) or leptin (125-130) (n=11; P>0.5; FIG. 11B). This reinforces the findings from the LDH assay that similar to either leptin or leptin (116-130), treatment with leptin (116-121) or leptin (117-122) reduces neuronal death in response to AD-linked toxins in vitro.

[2] = tested on: SH-SY5Y neuronal cultures; experiment: Thioflavin S staining of amyloid after seeding with Aβ1-42; type: cell-based, human; conditions: 96 hours after seeding with 1 μM Aβ1-42; leptin116-130 1 nM
Protocol: The human neuroblastoma cell line, SH-SY5Y (ECACC, UK) was maintained in Dulbecco's Modified Eagle Medium supplemented with glucose ([…]) and 10% (v/v) cosmic calf serum (Fisher Scientific, UK) at 37° C. in a humidified atmosphere of 5% CO2, 95% air and allowed to reach 70-80% confluence before seeding. Cells (passage 10-18) were plated at 2×10^5 cells on 13 mm borosilicate class coverslips or at 10 000 cells per well in 96 well tissue culture plates (Nunc, VWR, UK) prior to treatment. Reagents used were (from Sigma UK unless stated) 1 nM human leptin, leptin (116-121), leptin (117-122) and leptin (117-125); 0.0001-1 nm murine leptin fragments leptin (116-121), leptin (117-122) and leptin (116-130); 100 μM 6-hydroxydopamine; 10 μM CuCl2; […]
After 96 hours, cultures were fixed for 15 minutes in neutral buffered formalin, washed in phosphate buffered saline and stained with 0.05% Thioflavin S for 10 minutes prior to washing in phosphate buffered saline and mounting for visualisation on a fluorescent microscope. Relative fluorescent intensity per cell was determined using post hoc image analysis with Fiji software. Quantitative data is presented as the mean fluorescence per cell relative to control untreated cells.

hippocampal cultures = experiment: Synaptophysin staining and surface GluA1-synaptophysin colocalization; type: cell-based, Sprague Dawley rats; conditions: for colocalization between surface GluA1 and synaptophysin immunostaining: control 43±5.4%; for synaptophysin staining: leptin 50 nM, 30 min
Protocol: Hippocampal cultures were prepared from neonatal Sprague Dawley rats as before (O'Malley et al. 2007). Briefly, neonatal Sprague Dawley rats (1-3 days old) were killed by cervical dislocation in accordance with Schedule 1 of the United Kingdom Government Animals (Scientific Procedures) Act, 1986 and the hippocampi removed. After washing in HEPES buffered saline (HBS) comprising (mM): NaCl 135; KCl 5; CaCl2 1; MgCl2 1; HEPES 10; D-glucose 25 at pH 7.4; cells were treated with protease Type X and Type XIV (0.5 mg/ml; Sigma) for 25 min at room temperature. Dissociated cells were plated onto sterile dishes (Falcon 3001) treated with poly-1-lysine (20 μg/ml; 1-2 h) and maintained in MEM with serum replacement-2 (Sigma) in a humidified atmosphere of 5% CO2 and […] at 37° C. for up to 3 weeks.
To monitor GluA1 surface expression, immunocytochemistry was performed on hippocampal cultures (7-14 DIV) as before (Moult et al. 2010). […] Neurons were then fixed with 4% paraformaldehyde (5 min) before adding an appropriate fluorescently labelled secondary.
As excitatory synaptic strength is governed by the density of AMPA receptors expressed at synapses, the effects on synaptic AMPA receptors was examined by comparing the colocalization between surface GluA1 and synaptophysin immunolabelling in hippocampal cultures (Moult et al. 2010). […] Similarly, in hippocampal neurons treated with leptin (116-130), synaptophysin staining was increased to 122±9% (n=36; P<0.05) and a significant increase (to 64±4.9%; n=36; P<0.01) in GluA1-synaptophysin colocalization was observed (FIG. 2E). Conversely, exposure to leptin (22-56) had no significant effect on either synaptophysin staining (105±9%; n=36; P>0.05) or the degree of colocalization (49±5.4%; n=36; P>0.05; FIG. 2E).

Substance | increase in mitochondrial activity compared with Aβ1-42 alone [1] [%] | thioflavin S fluorescent signal per cell (amyloid accumulation) [2] | colocalization between surface GluA1 and synaptophysin immunostaining (hippocampal cultures) [%] | synaptophysin staining (hippocampal cultures)
CSLPQT (listed as Mus musculus) [leptin (117-122)] | 40.5±3.7 | prevent the accumulation of amyloid beta | – | –
SCSLPQ (listed as Mus musculus) [leptin (116-121)] | 43.61±3.9 | prevent the accumulation of amyloid beta | – | –
SCSLPQTSGLQKPES (listed as Mus musculus) [leptin (116-130)] | 40.9 ± 5.8 | amyloid propagation following seeding is greatly reduced | 64±4.9 | 122±9 % of control
leptin (22-56): leptin fragment amino acids 22-56 (Bachem), comparison fragment (VPIQKVQDDTKTLIKTIVTRINDISHTQSVSSKQK; UniProt P41159 22-56, looked up, fragment) [reference compound] | – | – | 49±5.4 | 105±9 % of control
leptin: the metabolic hormone leptin, whole (full length) leptin molecule; human leptin from Sigma in SH-SY5Y work | 32.6±5.2 | – | 62±4.4 | 144±9 % of control
